Measurements reported in ChEMBL document CHEMBL4819021, “Paratrimerins J-Y, Dimeric Coumarins Isolated from the Stems of Paramignya trimera” (J Nat Prod, 2021).
Activity calls are given as the source filed them.

What was measured:
Type in all cases: functional, cell-based
SK-HEP1 = assay: Cytotoxicity against human SK-HEP1 cells assessed as reduction in cell viability at 40 uM measured after 72 hrs by MTS assay
COLO 205 = assay: Cytotoxicity against human COLO 205 cells assessed as reduction in cell viability at 40 uM measured after 72 hrs by MTS assay
HCT-8 = assay: Cytotoxicity against human HCT-8 cells assessed as reduction in cell viability at 40 uM measured after 72 hrs by MTS assay
HCT-116 = assay: Cytotoxicity against human HCT-116 cells assessed as reduction in cell viability at 40 uM measured after 72 hrs by MTS assay
KM12 = assay: Cytotoxicity against human KM12 cells assessed as reduction in cell viability at 40 uM measured after 72 hrs by MTS assay
RKO = assay: Cytotoxicity against human RKO cells assessed as reduction in cell viability at 40 uM measured after 72 hrs by MTS assay
SW480 = assay: Cytotoxicity against human SW480 cells assessed as reduction in cell viability at 40 uM measured after 72 hrs by MTS assay
SW-620 = assay: Cytotoxicity against human SW-620 cells assessed as reduction in cell viability at 40 uM measured after 72 hrs by MTS assay
BT-549 = assay: Cytotoxicity against human BT-549 cells assessed as reduction in cell viability at 40 uM measured after 72 hrs by MTS assay
HCC38 = assay: Cytotoxicity against human HCC38 cells assessed as reduction in cell viability at 40 uM measured after 72 hrs by MTS assay
HCC70 = assay: Cytotoxicity against human HCC70 cells assessed as reduction in cell viability at 40 uM measured after 72 hrs by MTS assay
HCC1428 = assay: Cytotoxicity against human HCC1428 cells assessed as reduction in cell viability at 40 uM measured after 72 hrs by MTS assay
Hs-578T = assay: Cytotoxicity against human Hs-578T cells assessed as reduction in cell viability at 40 uM measured after 72 hrs by MTS assay
MDA-MB-231 = assay: Cytotoxicity against human MDA-MB-231 cells assessed as reduction in cell viability at 40 uM measured after 72 hrs by MTS assay
MDA-MB-435 = assay: Cytotoxicity against human MDA-MB-435 cells assessed as reduction in cell viability at 40 uM measured after 72 hrs by MTS assay
MDA-MB-468 = assay: Cytotoxicity against human MDA-MB-468 cells assessed as reduction in cell viability at 40 uM measured after 72 hrs by MTS assay
MCF7 = assay: Cytotoxicity against human MCF7 cells assessed as reduction in cell viability at 40 uM measured after 72 hrs by MTS assay
SK-BR-3 = assay: Cytotoxicity against human SK-BR-3 cells assessed as reduction in cell viability at 40 uM measured after 72 hrs by MTS assay
T47D = assay: Cytotoxicity against human T47D cells assessed as reduction in cell viability at 40 uM measured after 72 hrs by MTS assay

Measured: Activity

CC1=C[C@@H](c2cc3ccc(=O)oc3cc2O[C@@H]2O[C@H](CO)[C@@H](O)[C@H](O)[C@H]2O)[C@@](C)(/C=C/c2cc3ccc(=O)oc3cc2O[C@@H]2O[C@H](CO)[C@@H](O)[C@H](O)[C@H]2O)CC1
inactive: all assays above

CC1=C[C@H](c2cc3ccc(=O)oc3cc2O[C@@H]2O[C@H](CO)[C@@H](O)[C@H](O)[C@H]2O)[C@](C)(/C=C/c2cc3ccc(=O)oc3cc2O[C@@H]2O[C@H](CO[C@@H]3OC[C@](O)(CO)[C@H]3O)[C@@H](O)[C@H](O)[C@H]2O)CC1
inactive: all assays above

CC1=C[C@H](c2cc3ccc(=O)oc3cc2O[C@@H]2O[C@H](COC3OC[C@@H](O)[C@H](O)[C@H]3O)[C@@H](O)[C@H](O)[C@H]2O)[C@](C)(/C=C/c2cc3ccc(=O)oc3cc2O[C@@H]2O[C@H](COC3OC[C@@H](O)[C@H](O)[C@H]3O)[C@@H](O)[C@H](O)[C@H]2O)CC1 (stereo partly specified)
inactive: all assays above

CC1=C[C@@H](c2cc3ccc(=O)oc3cc2O[C@@H]2O[C@H](CO)[C@@H](O)[C@H](O)[C@H]2O)[C@@](C)(/C=C/c2cc3ccc(=O)oc3cc2O[C@@H]2O[C@H](COC3OC[C@@H](O)[C@H](O)[C@H]3O)[C@@H](O)[C@H](O)[C@H]2O)CC1 (stereo partly specified)
inactive: all assays above

CC1=C[C@H](c2cc3ccc(=O)oc3cc2O[C@@H]2O[C@H](CO[C@@H]3OC[C@](O)(CO)[C@H]3O)[C@@H](O)[C@H](O)[C@H]2O)[C@](C)(/C=C/c2cc3ccc(=O)oc3cc2O[C@@H]2O[C@H](CO)[C@@H](O)[C@H](O)[C@H]2O)CC1
inactive: all assays above

CC1=C[C@H](c2cc3ccc(=O)oc3cc2O[C@@H]2O[C@H](COC3OC[C@@H](O)[C@H](O)[C@H]3O)[C@@H](O)[C@H](O)[C@H]2O)[C@@](C)(/C=C/c2cc3ccc(=O)oc3cc2O[C@@H]2O[C@H](CO)[C@@H](O)[C@H](O)[C@H]2O)CC1 (stereo partly specified)
inactive: all assays above

CC1=C[C@@H](c2cc3ccc(=O)oc3cc2O[C@@H]2O[C@H](CO)[C@@H](O)[C@H](O)[C@H]2O)[C@@](C)(/C=C/c2cc3ccc(=O)oc3cc2O[C@@H]2O[C@H](CO[C@@H]3OC[C@](O)(CO)[C@H]3O)[C@@H](O)[C@H](O)[C@H]2O)CC1
inactive: all assays above

CC1=C[C@H](c2cc3ccc(=O)oc3cc2O[C@@H]2O[C@H](COC3OC[C@@H](O)[C@H](O)[C@H]3O)[C@@H](O)[C@H](O)[C@H]2O)[C@](C)(/C=C/c2cc3ccc(=O)oc3cc2O[C@@H]2O[C@H](CO)[C@@H](O)[C@H](O)[C@H]2O)CC1 (stereo partly specified)
inactive: all assays above

CC1=C[C@H](c2cc3ccc(=O)oc3cc2O[C@@H]2O[C@H](CO)[C@@H](O)[C@H](O)[C@H]2O)[C@@](C)(/C=C/c2cc3ccc(=O)oc3cc2O[C@@H]2O[C@H](COC3OC[C@@H](O)[C@H](O)[C@H]3O)[C@@H](O)[C@H](O)[C@H]2O)CC1 (stereo partly specified)
inactive: all assays above
